From patent US6537527B1, “Skin lightening compositions” (Children's Hospital Medical Center, priority 1994, dated 2003)

Assay: Stability under selective acid hydrolysis in pH 5 buffer
Assay type: physicochemical
Conditions: pH 5 buffer solution
Procedure: To a stirred suspension comprising the benzyl protected intermediate (1.0 equiv.), 5% Pd/C (0.07 equiv.) and methanol is added 55% hydrazine hydrate (˜20 equiv.). The reaction mixture is slowly heated and maintained at reflux under an inert atmosphere until TLC analysis indicates complete consumption of starting material. Reaction mixture is cooled to room temperature, filtered through celite to remove catalyst and volatiles removed in-vacuo. Residue is then subjected to low pressure column chromatography with 7:3 hexane:ethyl acetate as eluent. Composition and purity of isolated white solid as determined by ^1H and ^13C NMR is consistent with the brominated compound shown.

SMILES: Oc1ccc(O[C@H]2OCCC[C@@H]2Br)cc1 [Iii]
- stability to acid hydrolysis: stable under these conditions
